Here are results for 6 molecules from paper PMC5400565, “Real-time near-infrared fluorescence imaging using cRGD-ZW800-1 for intraoperative visualization of multiple cancer types” (Oncotarget, 2017).

The subject of series [1] is KV channel. Kind of series: Off-target screening (Eurofins Cerep), KV channel. To be noted: reference compound, format An. The format is binding. The source says:
(§1) Off-target interactions are binding of tracers to other components on the cell surface than the actual target site. These non-specific interactions are often of low affinity and easily missed, but can have significant effects. We outsourced the screening for in vitro for off-target interactions of cRGD-ZW800-1 to Eurofins Cerep SA, Le bois l’Evêque, France. They assessed the percentage of inhibition of a reference compound in 44 selected targets, including G protein-coupled receptors (GPCRs), transporters, ion channels, nuclear receptors, kinases and other non-kinase enzymes. These targets were recommended by four major pharmaceutical companies. The complete list is included in Supplementary Table 1 of the Supplementary Data. Each assay was performed twice using 10 μM cRGD-ZW800-1 and a reference compound. Inhibition higher than 50% was considered to represent a significant effect of cRGD-ZW800-1. Results showing between 20% and 50% were considered weak to moderate effects, while lower than 20% was not considered significant and mostly attributable to variability of the signal around the control level.

For series [2] the following is noted: human, in vivo, iv; cited from earlier work. The source says: Besides interacting with extracellular matrix proteins, integrin αvβ3 can also modulate intracellular pathways essential for COX-2 expression. The inhibition of COX-2 as shown in the in vitro off-target screening may be the result of binding cRGD-ZW800-1 to integrin αvβ3.
Series [3] concerns the target T1, 5-hydroxytryptamine (serotonin) receptor 2B (5-HT2B) (Homo sapiens, UniProt P41595).
T1 construct: Eurofins Cerep SA (contract screening)
Kind of series: Off-target screening (Eurofins Cerep), 5-HT2B. The format is binding. As to conditions: reference compound, format H, Ag.
From the text: as §1

In series [4] the test system is Na+ channel (site 2). Kind of series: Off-target screening (Eurofins Cerep), Na+ channel. It counts as binding. To be noted: reference compound, format An.
From the text: as §1

Series [5] relates to GABA channels BZD (central). In words: Off-target screening (Eurofins Cerep), BZD (central). To be noted: reference compound, format Ag. It counts as binding.
From the text: as §1

Series [6] concerns the target T2, Adrenergic α1A (Homo sapiens, UniProt P35348).
T2 construct: Eurofins Cerep SA (contract screening)
T2 sequence (P35348 1-466): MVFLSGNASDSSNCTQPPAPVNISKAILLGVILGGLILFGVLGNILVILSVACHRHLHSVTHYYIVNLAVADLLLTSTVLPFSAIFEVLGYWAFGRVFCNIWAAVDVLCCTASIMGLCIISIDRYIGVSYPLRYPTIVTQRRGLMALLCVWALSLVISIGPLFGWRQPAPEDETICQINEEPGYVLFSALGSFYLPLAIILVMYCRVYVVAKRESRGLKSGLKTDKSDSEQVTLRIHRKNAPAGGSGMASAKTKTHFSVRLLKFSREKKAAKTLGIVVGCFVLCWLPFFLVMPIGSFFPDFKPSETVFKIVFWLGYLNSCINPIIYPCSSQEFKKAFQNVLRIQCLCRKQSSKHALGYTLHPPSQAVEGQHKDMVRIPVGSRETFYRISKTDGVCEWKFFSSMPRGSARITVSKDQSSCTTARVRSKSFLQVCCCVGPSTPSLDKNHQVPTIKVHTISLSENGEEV
Kind of series: Off-target screening (Eurofins Cerep), α1A. The format is binding. To be noted: reference compound, format H, An.
From the text: as §1

T1 sequence (P41595 whole entry): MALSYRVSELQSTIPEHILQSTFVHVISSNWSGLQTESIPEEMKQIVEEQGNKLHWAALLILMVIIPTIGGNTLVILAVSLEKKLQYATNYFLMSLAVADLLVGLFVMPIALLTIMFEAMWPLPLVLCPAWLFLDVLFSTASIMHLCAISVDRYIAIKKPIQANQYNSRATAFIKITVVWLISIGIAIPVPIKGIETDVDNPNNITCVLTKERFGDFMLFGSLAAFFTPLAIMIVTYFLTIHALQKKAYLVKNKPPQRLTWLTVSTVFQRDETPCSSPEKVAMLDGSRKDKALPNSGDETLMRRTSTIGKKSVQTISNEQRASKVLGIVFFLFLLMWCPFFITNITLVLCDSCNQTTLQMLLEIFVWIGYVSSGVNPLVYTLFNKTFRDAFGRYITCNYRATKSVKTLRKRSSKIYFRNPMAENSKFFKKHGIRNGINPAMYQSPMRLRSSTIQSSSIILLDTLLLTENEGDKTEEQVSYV

With Alpha -dendrotoxin [reference compound], 0.23 nM corresponded to half-maximal inhibition in series [1] (IC50).
In the case of cilengitide, the side effects entry in series [2] was “without serious side effects”.
With `COc1cc(CC(C)N)c(OC)cc1I` (racemic) [(±)DOI, reference compound], the 50% inhibitory concentration (IC50) (usually the concentration that gives 50% inhibition) in series [3] is 4 nM.
`COc1ccc(C(=O)O[C@H]2CC[C@@]3(C)[C@@H]4CC[C@H]5[C@]6(O)C[C@H](O)[C@@]7(O)[C@@H](CN8C[C@@H](C)CC[C@H]8[C@@]7(C)O)[C@]6(O)C[C@@]53O[C@]24O)cc1OC` [Veratridine, reference compound] showed an IC50 in series [4] of 6800 nM.
With `CN1C(=O)CN=C(c2ccccc2)c2cc(Cl)ccc21` [Diazepam, reference compound], the IC50 in series [5] was 12 nM.
In the case of `COc1cccc(OC)c1OCCNCC1COc2ccccc2O1` (stereo not drawn) [WB 4101, reference compound], half-maximal inhibition in series [6] (IC50) was put at 0.46 nM.
